Patent publication US12459938B2, “ORAI channel inhibitors” (Beth Israel Deaconess Medical Center, Inc., priority 2019, dated 2025)

Tests used:
Assay type in all cases: cell-based
TNF-α = TNF-α release from rat mast cells (ELISA); details: Mast cell, RBL rat mast cells, control = DMSO; for activity at 1 µM: 1 μM compound; for activity at 10 µM: 10 μM compound
Protocol: (§1) [Ca^2+]ER in RBL (ATCC) rat mast cells were depleted by Tg in the presence of a test compound. Then […] DMEM-2% FBS (containing 5 mM Ca^2+) was supplemented back in the presence of the corresponding concentration of MCS-01.
(§2) Thirty minutes after replenishing Ca^2+ the culture supernatant was collected for MC degranulation and cytokine release. Degranulation was measured as percent secreted β-hexosaminidase (β-Hex) according to the protocol of the assay kit (Sigma-Aldrich, MO, USA). At this time point TNF-α was also measured using ELISA kit (R&D Systems, MN, USA).
The inhibitory activity of the tested compound in the TNF-α assay was presented as % of control (DMSO).

IL-2 = assay: Interleukine-2 (IL-2) assay (ELISA, PMA and TG stimulated); details: Human Jurkat T cells; PMA (10 nM) and TG (100 nM); 8 hours; read-out: IC50 (IL-2 levels)
Protocol: Human Jurkat T cells (ATCC) were plated in Dubelcco's Modified Eagle Medium (DMEM) with 1% FBS in a 96 well plate at a density of 1×10^6 cells/well. Cells were treated with a testing compound at different concentrations and stimulated by PMA (10 nM) and TG (100 nM). The treated cells were incubated at 8 hours. The supernatants were collected and assayed for IL-2 levels by ELISA according to the manufacturer's protocols. The IC50 of Example 2 was determined to be 3 μM.

[1] = system: Rat mast cells (RBL-2H3 cells); assay: Calcium influx assay (Fluo-4NW, thapsigargin store depletion, Ca2+ re-addition); details: control = DMSO, read-out: Fluo-4NW fluorescence (Ca2+ influx), % of control; for activity at 1 µM: 1 μM compound; for activity at 10 µM: 10 μM compound
Protocol: Rat mast cells (RBL-2H3 cells) (ATCC) were seeded in 96-well plate at 4×10^4 cells per well in DMEM-supplemented with 2% FBS and allowed to adhere overnight. Culture medium was then replaced with 50 μl of Ca^2+-free Tyrode buffer to load Ca^2+-probe Fluo-4NW (Molecular Probe, Thermo Fisher, MA, USA) per manufacturer instruction. A testing compound at indicated concentrations was supplied during the probe loading from the beginning. Cells were incubated in the presence or absence of a testing compound for 60 minutes in the Ca^2+-free medium at 37° C. During the last 5 minutes of incubation, cells were treated with 1 μM thapsigargin (Tg, Sigma Aldrich) to deplete [Ca^2+]ER, 20 mM CaCl2 in normal saline solution was supplemented back to the [Ca^2+]ER-depleted cells to have 2 mM as final concentration. Culture medium was removed 1 minute after Ca^2+ reloading, and changes in Fluo-4NW fluorescence (RFU) were recorded with the multi-mode plate reader (FilterMax F5, Molecular Devices/Thermo Fisher Scientific, MA, USA) at an excitation wavelength of 485 nm and an emission wavelength of 535 nm. The inhibitory activity of the tested compound was presented as % of control (DMSO).

RBL rat mast cells = assay: Degranulation of rat mast cells (secreted β-hexosaminidase); details: Mast cell, 0.5 h, Tg depletion, 30 minutes after replenishing Ca2+
Protocol: as §1, §2

NFAT = NFAT activation assay (luciferase reporter, PMA and ionomycin); details: Homo sapiens; 10 μM compound; Jurkat cells; 15 nM PMA and 0.5 μM ionomycin; 18 hours; read-out: Activity 10 μM (% inhibition of NFAT luciferase luminescence)
Protocol: Jurkat cells (BPS Bioscience catalog No. 60621) were seeded at 40,000 cells per well into white clear-bottom 96-well microplate in 80 μl of growth medium without Geneticin. 10 μl of testing compounds (final 10 μM) were added to each well and preincubated with cells for half an hour. Then 10 μl of PMA and ionomycin mixture were added to each well to make the final concentration of 15 nM PMA and 0.5 μM ionomycin. Cells were incubated at 37° C. and 5% CO2 incubator for 18 hours. After treatment, cells were lysed and the luciferase assay was performed using ONE-Step luciferase assay system by adding 100 μl of One-Step Luciferase reagent (BPS Bioscience catalog No. 60690) per well followed by rocking at room temperature for about 30 minutes. Luminescence was measured using a luminometer (BioTek Synergym™ 2 microplate reader). The percent luminescence in the presence of each compound was calculated according to the following equation: % Luminescence=(L−Lb)/(Lt−Lb), where L=the luminescence intensity in the presence of the compound, Lb=the luminescence intensity in the absence of cells, and Lt=the luminescence intensity in the absence of the compound. The percent inhibition was calculated by: % inhibition=100−(% Luminescence).

`O=C(Nc1c(F)cccc1Cl)c1cn(CC2CC2)c2ccccc12` [Example 2, N-(2-chloro-6-fluorophenyl)-1-(cyclopropylmethyl)-1H-indole-3-carboxamide] showed an activity at 1 µM (TNF-α) of 57%, an activity at 10 µM (TNF-α) of 30% and an IC50 (IL-2) of 3 µM. For the same compound, the activity at 1 µM [1] was 46%, the activity at 10 µM [1] was 14% and the IC50 (RBL rat mast cells) was 1.2 µM.
Compound `O=C(Nc1c(F)cncc1F)c1cn(CC2CCC2)c2ccccc12` [Example 7, 1-(cyclobutylmethyl)-N-(3,5-difluoropyridin-4-yl)-1H-indole-3-carboxamide] has an inhibition at 10 µM (NFAT) of 51 to 75%, an activity at 1 µM [1] of 85% and an activity at 10 µM [1] of 80%.
For `O=C(Nc1ccncc1F)c1cn(CC2CCC2)c2ccccc12` [Example 8, 1-(cyclobutylmethyl)-N-(3-fluoropyridin-4-yl)-1H-indole-3-carboxamide], the inhibition at 10 µM (NFAT) was over 75%, the activity at 1 µM (TNF-α) was 79% and the activity at 10 µM (TNF-α) was 51%. It also gave an activity at 1 µM [1] of 50% and an activity at 10 µM [1] of 25%.
Work on `Cc1cnccc1NC(=O)c1cn(CC2CCC2)c2ccccc12` [Example 9, 1-(cyclobutylmethyl)-N-(3-methylpyridin-4-yl)-1H-indole-3-carboxamide] yielded an inhibition at 10 µM (NFAT) of over 75%, an activity at 1 µM [1] of 81% and an activity at 10 µM [1] of 65%.
Compound `O=C(Nc1ccncc1F)c1cn(CC2CC2)c2ccccc12` [Example 13, 1-(cyclopropylmethyl)-N-(3-fluoropyridin-4-yl)-11/-indole-3-carboxamide] has an inhibition at 10 µM (NFAT) of over 75%, an activity at 1 µM (TNF-α) of 67% and an activity at 10 µM (TNF-α) of 53%. It also gave an activity at 1 µM [1] of 63% and an activity at 10 µM [1] of 31%.
